{
  "source": "patent US4448962A",
  "about": "“Substituted quinoline carboxylic acid derivatives” (Kyorin Seiyaku Kabushiki Kaisha, priority 1978, dated 1984)",
  "assay_in_all_cases": "Antibacterial spectrum (Minimum Inhibitory Concentration)",
  "format_in_all_cases": "cell-based",
  "key": {"[1]": {"tested_on": "Bacillus subtilis PCI 219", "text": "(§1) The antibacterial tests were done according to the method authorized by the Chemotherapeutic Society of Japan."}, "[2]": {"tested_on": "E. coli ATCC 10536", "conditions": "Escherichia coli, ATCC10536, read-out: Minimum Inhibitory Concentration", "text": "as §1"}, "[3]": {"tested_on": "Escherichia coli NIHJ JC-2", "conditions": "Escherichia coli, NIHJJC2, read-out: Minimum Inhibitory Concentration", "text": "as §1"}, "[4]": {"tested_on": "Klebsiella pneumoniae IFO 3512", "conditions": "Klebsiella pneumoniae, IFO3512, read-out: Minimum Inhibitory Concentration", "text": "as §1"}, "[5]": {"tested_on": "Mycobacterium smegmatis IFO 3083", "conditions": "Mycolicibacterium smegmatis", "text": "as §1"}, "[6]": {"tested_on": "Pr. vulgaris XK Denken", "conditions": "Proteus vulgaris, read-out: Minimum Inhibitory Concentration", "text": "as §1"}, "[7]": {"tested_on": "Proteus vulgaris IFO 3167", "text": "as §1"}, "[8]": {"tested_on": "Ps. aeruginosa IFO 12689", "conditions": "Pseudomonas aeruginosa", "text": "as §1"}, "[9]": {"tested_on": "Ps. aeruginosa IID 1130", "conditions": "Pseudomonas aeruginosa", "text": "as §1"}, "[10]": {"tested_on": "Ps. aeruginosa IID 1210", "conditions": "Pseudomonas aeruginosa", "text": "as §1"}, "[11]": {"tested_on": "Pseudomonas aeruginosa V-1", "text": "as §1"}, "[12]": {"tested_on": "Salmonella enteritidies IID 604", "text": "as §1"}, "[13]": {"tested_on": "Shigella sonnei IID 969", "conditions": "IID969; Shigella sonnei IID 969, Gram -", "text": "as §1"}, "[14]": {"tested_on": "Sta. aureus ATCC 14775", "conditions": "Staphylococcus aureus", "text": "as §1"}, "[15]": {"tested_on": "Staphylococcus aureus 209P", "conditions": "read-out: Minimum Inhibitory Concentration", "text": "as §1"}},
  "note": "Like-named read-outs stand apart in the source and are kept apart here.",
  "data": [
    {"smiles": "CCn1cc(C(=O)O)c(=O)c2ccc(C)nc21", "note": "[Nalidixic, nalidixic acid, reference compound]", "values": [
      {"measurement": "MIC", "setting": "[1]; Bacillus subtilis, PCI219, read-out: Minimum Inhibitory Concentration", "result": 6.25, "unit": "mg/L"},
      {"measurement": "MIC", "setting": "[2]", "result": 3.13, "unit": "mg/L"},
      {"measurement": "MIC", "setting": "[3]", "result": 3.13, "unit": "mg/L"},
      {"measurement": "MIC", "setting": "[4]", "result": 1.56, "unit": "mg/L"},
      {"measurement": "MIC", "setting": "[5]; IFO3083, read-out: Minimum Inhibitory Concentration", "result": "> 100", "unit": "mg/L"},
      {"measurement": "MIC", "setting": "[6]", "result": 3.13, "unit": "mg/L"},
      {"measurement": "MIC", "setting": "[7]; Proteus vulgaris, IFO3167, read-out: Minimum Inhibitory Concentration", "result": 3.13, "unit": "mg/L"},
      {"measurement": "MIC", "setting": "[8]; IFO12689, read-out: Minimum Inhibitory Concentration", "result": "> 200", "unit": "mg/L"},
      {"measurement": "MIC", "setting": "[9]; IID1130, read-out: Minimum Inhibitory Concentration", "result": "> 200", "unit": "mg/L"},
      {"measurement": "MIC", "setting": "[10]; IID1210, read-out: Minimum Inhibitory Concentration", "result": "> 200", "unit": "mg/L"},
      {"measurement": "MIC", "setting": "[11]; Pseudomonas aeruginosa, V1, read-out: Minimum Inhibitory Concentration", "result": 100, "unit": "mg/L"},
      {"measurement": "MIC", "setting": "[12]; Salmonella, IID604, read-out: Minimum Inhibitory Concentration", "result": 12.5, "unit": "mg/L"},
      {"measurement": "MIC", "setting": "[13]", "result": 1.56, "unit": "mg/L"},
      {"measurement": "MIC", "setting": "[14]; ATCC14775, read-out: Minimum Inhibitory Concentration", "result": "> 100", "unit": "mg/L"},
      {"measurement": "MIC", "setting": "[15]; Staphylococcus aureus, 209P", "result": 100, "unit": "mg/L"}
    ]},
    {"smiles": "CCn1cc(C(=O)O)c(=O)c2cnc(N3CCNCC3)nc21", "note": "[Pipemidic acid, reference compound]", "values": [
      {"measurement": "MIC", "setting": "[1]; PCI219, Bacillus subtilis PCI 219, Gram +, read-out: Minimum Inhibitory Concentration", "result": 6.25, "unit": "mg/L"},
      {"measurement": "MIC", "setting": "[2]", "result": 1.56, "unit": "mg/L"},
      {"measurement": "MIC", "setting": "[3]", "result": 1.56, "unit": "mg/L"},
      {"measurement": "MIC", "setting": "[4]", "result": 1.56, "unit": "mg/L"},
      {"measurement": "MIC", "setting": "[5]; IFO3083, Mycobacterium smegmatis IFO 3083, Gram +, read-out: Minimum Inhibitory Concentration", "result": 50, "unit": "mg/L"},
      {"measurement": "MIC", "setting": "[6]; Pr. vulgaris XK Denken, Gram -", "result": 6.25, "unit": "mg/L"},
      {"measurement": "MIC", "setting": "[7]; IFO3167, Proteus vulgaris IFO 3167, Gram -, read-out: Minimum Inhibitory Concentration", "result": 3.13, "unit": "mg/L"},
      {"measurement": "MIC", "setting": "[8]; IFO12689, Ps. aeruginosa IFO 12689, Gram -, read-out: Minimum Inhibitory Concentration", "result": 25, "unit": "mg/L"},
      {"measurement": "MIC", "setting": "[9]; IID1130, Ps. aeruginosa IID 1130, Gram -, read-out: Minimum Inhibitory Concentration", "result": 25, "unit": "mg/L"},
      {"measurement": "MIC", "setting": "[10]; IID1210, Ps. aeruginosa IID 1210, Gram -, read-out: Minimum Inhibitory Concentration", "result": 50, "unit": "mg/L"},
      {"measurement": "MIC", "setting": "[11]; V1, Pseudomonas aeruginosa V-1, Gram -, read-out: Minimum Inhibitory Concentration", "result": 12.5, "unit": "mg/L"},
      {"measurement": "MIC", "setting": "[12]; IID604, Salmonella enteritidies IID 604, Gram -, read-out: Minimum Inhibitory Concentration", "result": 12.5, "unit": "mg/L"},
      {"measurement": "MIC", "setting": "[13]", "result": 1.56, "unit": "mg/L"},
      {"measurement": "MIC", "setting": "[14]; ATCC14775, Sta. aureus ATCC 14775, Gram +, read-out: Minimum Inhibitory Concentration", "result": 100, "unit": "mg/L"},
      {"measurement": "MIC", "setting": "[15]; Staphylococcus aureus 209P, Gram +", "result": 25, "unit": "mg/L"}
    ]}
  ]
}
